Test results: the CheMixHub ionic liquid set
Where “and” joins values, the source holds several entries; their conditions need not be identical. Identical values can stand only once.

Test: xn = mol fraction of the nth substance listed

CCCC[n+]1ccn(C)c1.F[B-](F)(F)F + CCCC[n+]1ccn(C)c1.F[P-](F)(F)(F)(F)F
101 kPa, x2 = 0
Settings | viscosity [mPa·s]
299.15 K | 101.9
301.15 K | 92
303.15 K | 83.4

O=C1CCCC1 + CCCC[n+]1ccn(C)c1.F[P-](F)(F)(F)(F)F
298.15 K, 101.3 kPa
Settings | viscosity [mPa·s]
x1 = 0.0936 | 175
x1 = 0.3093 | 66
x1 = 0.4012 | 42.2
x1 = 0.5514 | 19.23

CC(=O)[O-].CCCC[n+]1ccn(C)c1 + CCCC[n+]1ccn(C)c1.O=S(=O)([N-]S(=O)(=O)C(F)(F)F)C(F)(F)F
101 kPa
Settings | electrical conductivity [S/m] | viscosity
283.15 K, x2 = 0 | 0.0145 | 1815 mPa·s
283.15 K, x2 = 0.1057 | 0.0213 | 1212 mPa·s
283.15 K, x2 = 0.3662 | 0.0403 | 565 mPa·s
298.15 K, x2 = 0.8097 | 0.28 | 73 mPa·s
303.15 K, x1 = 0.5001 | – | 100 mPa·s
303.15 K, x1 = 0.7497 | – | 161.5 mPa·s
313.15 K, x2 = 0 | 0.138 | 154 mPa·s
313.15 K, x2 = 0.1057 | 0.168 | 128 mPa·s
313.15 K, x2 = 0.3662 | 0.236 | 82 mPa·s
313.15 K, x2 = 0.6541 | 0.387 | 49.4 mPa·s
313.15 K, x2 = 0.8097 | 0.504 | 38.2 mPa·s
314.3 K, x2 = 0 | – | 126 mPa·s and 138 mPa·s
314.3 K, x2 = 0.7282 | 0.474 | 39.2 mPa·s
323.15 K, x1 = 0.7497 | – | 56 mPa·s
333.15 K, x2 = 0.1057 | 0.416 | 47.4 mPa·s

CC1CC(=O)O1 (stereo not given) + CCCC[n+]1ccn(C)c1.O=S(=O)([N-]S(=O)(=O)C(F)(F)F)C(F)(F)F
electrical conductivity [S/m], 100 kPa, frequency 0.01 MHz
Settings | 293.15 K | 298.15 K | 303.15 K | 308.15 K | 313.15 K | 318.15 K | 323.15 K
x2 = 0.0493 | 0.874 | 0.942 | 1.02 | 1.1 | 1.2 | 1.29 | 1.38
x2 = 0.1001 | 1.1 | 1.22 | 1.34 | 1.48 | 1.62 | 1.74 | 1.89
x2 = 0.1526 | 1.21 | 1.34 | 1.49 | 1.64 | 1.8 | 1.94 | 2.12
x2 = 0.2001 | 1.2 | 1.32 | 1.47 | 1.62 | 1.79 | 1.97 | 2.16
x2 = 0.3001 | 1.02 | 1.15 | 1.28 | 1.42 | 1.58 | 1.76 | 1.96
x2 = 0.4013 | 0.782 | 0.883 | 1 | 1.13 | 1.26 | 1.43 | 1.61
x2 = 0.5004 | 0.619 | 0.701 | 0.804 | 0.91 | 1.02 | 1.16 | 1.3
x2 = 0.5995 | 0.505 | 0.58 | 0.67 | 0.754 | 0.857 | 0.976 | 1.1
x2 = 0.6929 | 0.437 | 0.504 | 0.584 | 0.665 | 0.758 | 0.865 | 0.992
x2 = 0.814 | 0.39 | 0.451 | 0.521 | 0.592 | 0.677 | 0.775 | 0.886
x2 = 0.9001 | 0.353 | 0.417 | 0.484 | 0.557 | 0.645 | 0.74 | 0.837

CC1COC(=O)O1 (stereo not given) + CCCC[n+]1ccn(C)c1.O=S(=O)([N-]S(=O)(=O)C(F)(F)F)C(F)(F)F
101.3 kPa
Settings | viscosity [mPa·s]
293.15 K, x2 = 0.8776 | 51
298.15 K, x2 = 0.1013 | 4.029
298.15 K, x2 = 0.7 | 28.89
303.15 K, x2 = 0.8079 | 29.79
303.15 K, x2 = 0.8776 | 33.75
308.15 K, x2 = 0.1013 | 3.249
308.15 K, x2 = 0.1557 | 4.102
308.15 K, x2 = 0.4128 | 9.65
308.15 K, x2 = 0.5045 | 12.33
313.15 K, x2 = 0.5045 | 10.67
318.15 K, x2 = 0.7 | 15.35
323.15 K, x2 = 0.7 | 13.28
333.15 K, x2 = 0.8776 | 13.61
338.15 K, x2 = 0.3071 | 3.659
348.15 K, x2 = 0 | 1.14
348.15 K, x2 = 0.1557 | 2.025

CCCCCCCCO + CCCC[n+]1ccn(C)c1.O=S(=O)([N-]S(=O)(=O)C(F)(F)F)C(F)(F)F
100 kPa
Settings | electrical conductivity, x2 = 0.03335 [S/m] | viscosity, x2 = 0 [mPa·s] | viscosity, x2 = 0.8499 [mPa·s] | viscosity, x2 = 0.8986 [mPa·s]
294.5 K | 0.02 | – | – | –
298 K | – | 7.614 | 37.77 | 40.18

Nc1ccccc1 + CCCC[n+]1ccn(C)c1.O=S(=O)([N-]S(=O)(=O)C(F)(F)F)C(F)(F)F
viscosity [mPa·s], 100 kPa
Settings | 288.15 K | 293.15 K | 298.15 K | 303.15 K | 308.15 K | 313.15 K | 318.15 K | 323.15 K | 328.15 K | 333.15 K
x1 = 0.1 | 66.3 | 52.2 | 42.1 | 34.3 | 28.6 | 23.9 | 20.44 | 17.56 | 15.22 | 13.34
x1 = 0.2 | 55.9 | 44.1 | 35.9 | 29.3 | 24.5 | 20.59 | 17.66 | 15.22 | 13.24 | 11.63
x1 = 0.3029 | 46.5 | 36.8 | 30.1 | 24.7 | 20.77 | 17.48 | 15.05 | 13.02 | 11.36 | 10.01
x1 = 0.4013 | 38.5 | 30.6 | 25.1 | 20.73 | 17.48 | 14.76 | 12.76 | 11.06 | 9.68 | 8.56
x1 = 0.5024 | 31.1 | 24.8 | 20.42 | 16.98 | 14.38 | 12.17 | 10.57 | 9.19 | 8.08 | 7.16
x1 = 0.6002 | 24.6 | 19.71 | 16.28 | 13.64 | 11.58 | 9.84 | 8.59 | 7.5 | 6.61 | 5.88
x1 = 0.7 | 18.38 | 14.86 | 12.4 | 10.47 | 8.92 | 7.61 | 6.68 | 5.86 | 5.19 | 4.64
x1 = 0.8002 | 13.46 | 10.93 | 9.22 | 7.8 | 6.71 | 5.77 | 5.09 | 4.5 | 4 | 3.59
x1 = 0.9 | 8.74 | 7.19 | 6.1 | 5.2 | 4.5 | 3.9 | 3.46 | 3.08 | 2.76 | 2.48
x1 = 1 | 5.32 | 4.41 | 3.74 | 3.2 | 2.78 | 2.45 | 2.159 | 1.927 | 1.738 | 1.577
